{"source": "patent US10239957B2", "about": "“Peptide containing conjugates for dual molecular delivery of oligonucleotides” (Merck Sharp & Dohme Corp., priority 2013, dated 2019)", "tested_on": "CTNNB1", "assay": "In vivo evaluation in mice: liver mRNA knockdown measurement", "protocol": "Female CD-1 mice (Charles River) were injected in accordance with either a sequential dosing paradigm or a co-dosing paradigm. In the sequential dosing paradigm, the targeted siRNA (SCE) is dosed at t=0 and the targeted peptide is separately dosed up to 2 hr before the SCE (−2 hr) or up to 24 hr after the SCE (+24 hr). In the co-dosing paradigm, the SCE and peptides are co-formulated and dosed together in the same formulation as a single injection at t=0. The mice were dosed either by intravenous (i.v.) or subcutaneous (s.c.) injection of SCE and peptide. For the i.v. doses, the compounds were injected into the tail vein of the mice. For the s.c. doses, the compounds were injected in the subcutaneous space on the back of the mouse between the shoulder blades. At the indicated harvest times (measured from t=0 when the siRNA was dosed, regardless of when the peptide was dosed), the animals were sacrificed and 3 mm liver punches were collected, preserved in RNAlater (Ambion), and stored at 4° C. Separate 5 mm liver punches were collected, placed in 96-well plates, frozen on dry ice, and stored at −80° C. until use.\nThe 3 mm liver punches were removed from RNAlater and homogenized in Trizol (Invitrogen) using a bead mill tissue lyser (Qiagen); disruption was performed for two 5-minute cycles at 30 Hz. RNA extraction was performed using 1-bromo-2-chloropropane (Acros Organics) and total RNA was isolated from the aqueous phase using the MagMax RNA isolation method (Ambion). […] TaqMan qPCR analysis was performed with an ABI 7900 Real-Time PCR System using TaqMan Fast Advanced Master Mix (Applied Biosystems). All TaqMan probes and primers for CTNNB1 and PPIB (housekeeping gene) were purchased from Applied Biosystems as pre-validated gene expression assays. Results are calculated by the comparative Ct method, where the difference between the CTNNB1 Ct value and the PPIB Ct value (ΔCt) is calculated and then further normalized relative to the PBS control by taking a second difference (ΔΔCt), as described previously (1).", "key": {"[1]": {"details": "Table 8 (linkage comparison), TGN-L-siRNA-II 0.25 mg/kg, peptide 1 mg/kg"}, "[2]": {"details": "Table 8 (linkage comparison), TGN-L-siRNA-II 0.25 mg/kg, peptide 3 mg/kg"}, "[3]": {"details": "mice, TGN-L-siRNA-II 0.25 mg/kg IV, peptide 1 mg/kg IV 15 min after siRNA"}, "[4]": {"details": "mice, TGN-L-siRNA-II 0.25 mg/kg IV, peptide 3 mg/kg IV 15 min after siRNA"}, "[5]": {"details": "mice, TGN-L-siRNA-III 0.25 mg/kg IV, peptide 2 mg/kg IV 15 min after siRNA"}, "[6]": {"details": "mice, TGN-L-siRNA-III 0.25 mg/kg IV, peptide 10 mg/kg IV 15 min after siRNA"}, "[7]": {"details": "mice, TGN-L-siRNA-III 0.5 mg/kg IV, peptide 5 mg/kg IV 15 min after siRNA"}, "[8]": {"details": "mice, TGN-L-siRNA-III 0.5 mg/kg IV, peptide 2 mg/kg IV 15 min after siRNA"}, "[9]": {"details": "mice, TGN-L-siRNA-III 0.5 mg/kg IV, peptide 10 mg/kg IV 15 min after siRNA"}, "[10]": {"details": "mice, TGN-L-siRNA-III 0.25 mg/kg IV, peptide 5 mg/kg IV 15 min after siRNA"}}, "note": "Where no end group is shown, it is not given here. [ ]: non-standard residue; d: D form. TGN = not defined here"}
{"substance": "TGN-CDM-SEQ ID NO: 1801 (D): TGN-CDM peptide; peptide glfgeieelieeglenlidwgng; C8 made from the same all(D) sequence (G[dL][dF]G[dE][dI][dE][dE][dL][dI][dE][dE]G[dL][dE][dN][dL][dI][dD][dW]G[dN]G; also: TGN-CDM conjugate; listed as Homo sapiens)", "values": [{"measurement": "In vivo mRNA knockdown", "setting": "[1]", "value": 23.0, "unit": "%"}, {"measurement": "In vivo mRNA knockdown", "setting": "[2]", "value": 24.9, "unit": "%"}]}
{"substance": "TGN-ECL-SEQ ID NO: 1802 (D): TGN-ECL-peptide; peptide gffgaiwefihsil (G[dF][dF]G[dA][dI][dW][dE][dF][dI][dH][dS][dI][dL]; also: TGN-ECL conjugate; listed as Homo sapiens)", "values": [{"measurement": "In vivo mRNA knockdown", "setting": "[1]", "value": 28.7, "unit": "%"}, {"measurement": "In vivo mRNA knockdown", "setting": "[2]", "value": 64.0, "unit": "%"}]}
{"substance": "TGN-S-S- SEQ ID NO: 1738 (D) (G[dL][dF]G[dE][dI][dE][dE][dL][dI][dE][dE]G[dL][dE][dN][dL][dI][dD][dW]G[dN]G[dL][dA][dE][dL][dA][dE][dA][dL][dE][dA][dL][dA][dA]GG[dS][dC]; not fully specified (residue 40); also: TGN attached via disulfide; listed as Homo sapiens)", "values": [{"measurement": "In vivo mRNA knockdown", "setting": "[3]", "value": 25, "unit": "%"}, {"measurement": "In vivo mRNA knockdown", "setting": "[4]", "value": 44, "unit": "%"}]}
{"substance": "TGN-S-S-SEQ ID NO: 935 (L) (C(TGN)GFFGEIAELIWEGLKNLIDWWNG; reading uncertain; also: TGN linked to Cys via disulfide, TGN not defined; listed as Homo sapiens)", "values": [{"measurement": "In vivo mRNA knockdown", "setting": "[5]", "value": 17, "unit": "%"}, {"measurement": "In vivo mRNA knockdown", "setting": "[6]", "value": 23, "unit": "%"}]}
{"substance": "TGN-S-S-SEQ ID NO: 1248 (L) (C(TGN)FLEELWELLEHLL; reading uncertain; also: TGN disulfide conjugate at Cys1; listed as Homo sapiens)", "values": [{"measurement": "In vivo mRNA knockdown", "setting": "[7]", "value": 24, "unit": "%"}]}
{"substance": "TGN-S-S-SEQ ID NO: 1403 (L) (C(TGN)GLLEEIEELLEEGLENLIDWWNS; reading uncertain; also: TGN disulfide conjugate at Cys1; listed as Homo sapiens)", "values": [{"measurement": "In vivo mRNA knockdown", "setting": "[5]", "value": 22, "unit": "%"}, {"measurement": "In vivo mRNA knockdown", "setting": "[6]", "value": 24, "unit": "%"}]}
{"substance": "TGN-S-S-SEQ ID NO: 1489 (D) ([dC][dL][dE][dL][dW][dL][dE][dH][dL][dF][dL][dE][dL][dE]; not fully specified (residue 1); also: TGN attached via disulfide; listed as Homo sapiens)", "values": [{"measurement": "In vivo mRNA knockdown", "setting": "[8]", "value": 37, "unit": "%"}, {"measurement": "In vivo mRNA knockdown", "setting": "[9]", "value": 26, "unit": "%"}, {"measurement": "In vivo mRNA knockdown", "setting": "mice, TGN-L-siRNA-III 0.5 mg/kg IV, peptide 25 mg/kg IV 15 min after siRNA", "value": 34, "unit": "%"}]}
{"substance": "TGN-S-S-SEQ ID NO: 1516 (L) (C(TGN)GLFAEIEELLEEGLENLIDWWNG; reading uncertain; also: TGN disulfide conjugate at Cys1; listed as Homo sapiens)", "values": [{"measurement": "In vivo mRNA knockdown", "setting": "[10]", "value": 14, "unit": "%"}]}
{"substance": "TGN-S-S-SEQ ID NO: 1643 (D) ([dC]G[dF][dF]G[dE][dI][dA][dE][dL][dI][dE][dE]G[dL][dK][dN][dL][dI][dD][dW]G[dN]G; not fully specified (residue 1); also: TGN attached via disulfide; listed as Homo sapiens)", "values": [{"measurement": "In vivo mRNA knockdown", "setting": "[6]", "value": 41, "unit": "%"}]}
{"substance": "TGN-S-S-SEQ ID NO: 1716 (L) (C(TGN)GLFEELAGLLWHGLKNLIDWWNG; reading uncertain; also: TGN disulfide conjugate at Cys1; listed as Homo sapiens)", "values": [{"measurement": "In vivo mRNA knockdown", "setting": "[7]", "value": 39, "unit": "%"}]}
{"substance": "TGN-S-S-SEQ ID NO: 1717(L): TGN-S-S-peptide; peptide CFLGALFHALSHLLENLIDWWNG (C(TGN)FLGALFHALSHLLENLIDWWNG; reading uncertain; also: TGN disulfide conjugate at Cys1; listed as Homo sapiens)", "values": [{"measurement": "In vivo mRNA knockdown", "setting": "[7]", "value": 16, "unit": "%"}]}
{"substance": "TGN-S-S-SEQ ID NO: 1719 (L) (C(TGN)GLFAEIEELIWEGLENLIDWWNQ; reading uncertain; also: TGN disulfide conjugate at Cys1; listed as Homo sapiens)", "values": [{"measurement": "In vivo mRNA knockdown", "setting": "[10]", "value": 25, "unit": "%"}]}
{"substance": "TGN-S-S-SEQ ID NO: 1725 (L) (C(TGN)SSAWWSYWPPVA; reading uncertain; also: TGN disulfide conjugate at Cys1; listed as Homo sapiens)", "values": [{"measurement": "In vivo mRNA knockdown", "setting": "[6]", "value": 19, "unit": "%"}]}
{"substance": "TGN-S-S-SEQ ID NO: 1726(D): TGN-S-S-peptide; peptide CGLFAVIKKVASVIGGL ([dC]G[dL][dF][dA][dV][dI][dK][dK][dV][dA][dS][dV][dI]GG[dL]; not fully specified (residue 1); also: TGN attached via disulfide; listed as Homo sapiens)", "values": [{"measurement": "In vivo mRNA knockdown", "setting": "[6]", "value": 23, "unit": "%"}]}
{"substance": "TGN-S-S-SEQ ID NO: 1727 (D): TGN-S-S-peptide; peptide CGLFAVIHHVASVIGGL ([dC]G[dL][dF][dA][dV][dI][dH][dH][dV][dA][dS][dV][dI]GG[dL]; not fully specified (residue 1); also: TGN attached via disulfide; listed as Homo sapiens)", "values": [{"measurement": "In vivo mRNA knockdown", "setting": "[6]", "value": 26, "unit": "%"}]}
{"substance": "TGN-S-S-SEQ ID NO: 1728(D): TGN-S-S-peptide; peptide CGLFAVIEEVASVIGGL ([dC]G[dL][dF][dA][dV][dI][dE][dE][dV][dA][dS][dV][dI]GG[dL]; not fully specified (residue 1); also: disulfide to TGN peptide via Cys1; listed as Homo sapiens)", "values": [{"measurement": "In vivo mRNA knockdown", "setting": "[6]", "value": 23, "unit": "%"}]}
{"substance": "TGN-S-S-SEQ ID NO: 1729 (L) (C(TGN)GPSQPTYPGDDAPVRDLIRFYRDLRRYLNVVTRHRY; reading uncertain; also: TGN linked to Cys via disulfide, TGN not defined; listed as Homo sapiens)", "values": [{"measurement": "In vivo mRNA knockdown", "setting": "[6]", "value": 10, "unit": "%"}]}
{"substance": "TGN-S-S-SEQ ID NO: 1740 (D): TGN-S-S-peptide; peptide GLFEAIEGFIENGWEGLAELAEALEALAAGGSC (G[dL][dF][dE][dA][dI][dE]G[dF][dI][dE][dN]G[dW][dE]G[dL][dA][dE][dL][dA][dE][dA][dL][dE][dA][dL][dA][dA]GG[dS][dC]; not fully specified (residue 33); also: disulfide to TGN peptide via Cys33; listed as Homo sapiens)", "values": [{"measurement": "In vivo mRNA knockdown", "setting": "[3]", "value": 23, "unit": "%"}, {"measurement": "In vivo mRNA knockdown", "setting": "[4]", "value": 42, "unit": "%"}]}
{"substance": "TGN-S-S-SEQ ID NO: 1741(L): TGN-S-S-peptide; peptide GLFGALAEALAEALAEHLAEALAEALEALAAGGSC (GLFGALAEALAEALAEHLAEALAEALEALAAGGSC(TGN); reading uncertain; also: TGN linked to Cys via disulfide, TGN not defined; listed as Homo sapiens)", "values": [{"measurement": "In vivo mRNA knockdown", "setting": "[4]", "value": 24, "unit": "%"}]}
{"substance": "TGN-S-S-SEQ ID NO: 1744 (D) ([dC][dE][dE][dN][dW][dI]G[dL][dF]GGG[dN][dI][dW][dE][dE][dE][dE][dI][dL][dD][dL][dL]; not fully specified (residue 1); also: disulfide to TGN peptide via Cys1; listed as Homo sapiens)", "values": [{"measurement": "In vivo mRNA knockdown", "setting": "[8]", "value": 28, "unit": "%"}, {"measurement": "In vivo mRNA knockdown", "setting": "[9]", "value": 33, "unit": "%"}]}
